Data from patent US11478558B2, “Prostate-specific membrane antigen targeted high-affinity agents for endoradiotherapy of prostate cancer” (The Johns Hopkins University, priority 2017, dated 2022).

Key:
[1] = Octanol/water partition coefficient; assay type: physicochemical; details: Table 1
PSMA = PSMA (Homo sapiens (Human), UniProt Q04609); assay: PSMA binding affinity
PSMA(+) PC3 PIP cells = assay: Cell uptake, cell surface binding and internalization in PSMA(+) PC3 PIP cells; assay type: cell-based, human
PSMA+ PC3 PIP cells = assay: Clonogenic cell survival assay in PSMA+ PC3 PIP cells; assay type: cell-based, human
PSMA+ PC3 PIP tumors = assay: Radiopharmaceutical therapy in PC3 PIP flank tumor growth delay model; assay type: in vivo, NOD/SCID mice; details: 111 MBq, n=10
Protocol: A pilot treatment study using NOD/SCID mice (n=10 per group) bearing PSMA+ PC3 PIP tumors with a single intravenous dose of 111 MBq (3 mCi) of agents ^177Lu-PSMA-617, ^177Lu-1, ^177Lu-3 and ^177Lu-5 and the control group (with saline treatment) were performed (Table 8). Volume of the all control group mice reached >5-fold of their initial tumor volume within 14 days. Mouse euthanized for treated group within 4 weeks of post-injection was mainly due to sudden body weight loss and not related to tumor growth. […] The difference among treatment groups was statistically significant (P=0.002) by the log-rank test compared to the untreated group. […] After 8-weeks, three mice from each treated group were used for detailed blood analysis and necropsy study. All animals underwent radiotherapy study had normal creatinine (0.3-0.4 mg/dL) and blood urea nitrogen levels. […] Additionally, a significant lowering of platelet for all three treated mice from ^177Lu-PSMA-617 compared control group and other treated groups.
Median survival for the ^177Lu-PSMA-617 was 133 days vs. 234 days for ^177Lu-1.
The remaining treated mice survived tumor-free for 10 months and were evaluated for toxicity.
Antitumor efficacy studies were performed in PC3 PIP flank tumor growth delay model to evaluate the therapeutic efficacy of a single dose intravenous injection of ^177Lu-L1, ^177Lu-L3, ^177Lu-L5 and ^177Lu-PSMA-617 vs. saline. This was a head-to-head comparison study and same batch of tumor-bearing mice and radioactivity. The study was commenced 14-18 days post-inoculation of the xenografts, when all the mice had tumor volume of about ˜60-85 mm^3 (Table 8). All the living mice were monitored for 8 weeks to monitor the growth delay. Mice body weight and tumor volume were monitored every 3 days throughout the experiment. Endpoint criteria defined by the institute ACUC was weight loss≥15%, a tumor volume>1800 mm^3, active ulceration of the tumor or abnormal behavior indicating pain or unease. After 8-weeks, three mice from each group were submitted for detail necropsy and blood analysis. Mice group treated with ^177Lu-1 and ^177Lu-PSMA-617 were continued to monitor until the endpoint. These definitions were also used for Kaplan-Meier analysis. The probability of reaching 5 times the initial tumor volume was characterized using Kaplan-Meier curves, and comparison was performed using the log-rank test. The formula used for calculation of tumor volume was V=width^2×length/2. Toxicity of the ^177Lu-treatment groups after 8-weeks and in healthy CD-1 (n=3) mice treated with 111 MBq was evaluated by pathologic examination at the Johns Hopkins Pathology Core facility with serum metabolic panel, blood counts, and full necropsy including detailed histopathology of kidneys, salivary glands and lacrimal glands.

[2] = system: PSMA(+) PC3 PIP and PSMA(−) PC3 flu tumor xenografts; assay: Biodistribution of 177Lu compounds (Example 5)

Sequence of PSMA (Q04609 whole entry): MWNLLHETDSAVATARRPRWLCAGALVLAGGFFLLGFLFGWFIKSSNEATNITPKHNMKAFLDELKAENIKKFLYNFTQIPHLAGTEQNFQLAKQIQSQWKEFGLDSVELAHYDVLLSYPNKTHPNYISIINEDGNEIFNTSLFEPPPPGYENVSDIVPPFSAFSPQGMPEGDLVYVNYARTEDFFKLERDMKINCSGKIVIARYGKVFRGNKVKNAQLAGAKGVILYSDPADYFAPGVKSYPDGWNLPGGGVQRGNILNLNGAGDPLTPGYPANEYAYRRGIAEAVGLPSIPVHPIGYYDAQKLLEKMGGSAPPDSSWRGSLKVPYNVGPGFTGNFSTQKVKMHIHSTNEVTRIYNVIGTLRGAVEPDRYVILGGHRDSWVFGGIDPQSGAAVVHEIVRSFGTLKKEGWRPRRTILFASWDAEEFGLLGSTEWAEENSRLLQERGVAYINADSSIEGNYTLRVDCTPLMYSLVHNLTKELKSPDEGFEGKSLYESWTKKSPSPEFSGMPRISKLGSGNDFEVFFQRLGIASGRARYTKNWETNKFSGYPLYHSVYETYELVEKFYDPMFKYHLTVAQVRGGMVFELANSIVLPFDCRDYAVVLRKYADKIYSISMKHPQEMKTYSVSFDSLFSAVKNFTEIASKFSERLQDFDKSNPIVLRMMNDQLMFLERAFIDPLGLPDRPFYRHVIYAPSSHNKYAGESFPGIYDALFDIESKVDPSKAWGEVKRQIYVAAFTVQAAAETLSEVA

O=C(O)CC[C@H](NC(=O)N[C@@H](CCCCN(Cc1ccc(Br)cc1)C(=O)CCCCNC(=S)Nc1ccc(CC2CN(CC(=O)O)CCN(CC(=O)O)CCN(CC(=O)O)CCN2CC(=O)O)cc1)C(=O)O)C(=O)O (stereo partly drawn) [Ligand 1, (13S,17S)-8-(4-bromobenzyl)-7,15-dioxo-1-((4-((1,4,7,10-tetrakis(carboxymethyl)-1,4,7,10-tetraazacyclododecan-2-yl)methyl)phenyl)amino)-1-thioxo-2,8,14,16-tetraazanonadecane-13,17,19-tricarboxylic acid]
LogPoct/water [1]: −3.0

O=C(O)CC[C@H](NC(=O)N[C@@H](CCCCN(Cc1ccc(Br)cc1)C(=O)CCCCNC(=O)CN1CCN(CC(=O)O)CCN(CC(=O)O)CCN(CC(=O)O)CC1)C(=O)O)C(=O)O [Ligand 2, (14S,18S)-9-(4-Bromobenzyl)-2,8,16-trioxo-1-(4,7,10-tris(carboxymethyl)-1,4,7,10-tetraazacyclododecan-1-yl)-3,9,15,17-tetraazaicosane-14,18,20-tricarboxylic acid]
IC50 (PSMA; Table 1): 0.64 nM
Ki (PSMA; Table 1): 1.28 nM
LogPoct/water [1]: −3.53

O=C(O)CC[C@H](NC(=O)N[C@@H](CCCCNC(=O)CCCCNC(=S)Nc1ccc(CC2CN(CC(=O)O)CCN(CC(=O)O)CCN(CC(=O)O)CCN2CC(=O)O)cc1)C(=O)O)C(=O)O (stereo partly drawn) [Ligand 3, (13S,17S)-7,15-dioxo-1-((4-((1,4,7,10-tetrakis(carboxymethyl)-1,4,7,10-tetraazacyclododecan-2-yl)methyl)phenyl)amino)-1-thioxo-2,8,14,16-tetraazanonadecane-13,17,19-tricarboxylic acid]
IC50 (PSMA; Table 1): 2.16 nM
Ki (PSMA; Table 1): 0.43 nM
LogPoct/water [1]: −3.2

O=C(O)CC[C@H](NC(=O)N[C@@H](CCCCN(Cc1ccc(I)cc1)C(=O)CCCCNC(=O)CN1CCN(CC(=O)O)CCN(CC(=O)O)CCN(CC(=O)O)CC1)C(=O)O)C(=O)O [Ligand L2, (14S,18S)-9-(4-iodobenzyl)-2,8,16-trioxo-1-(4,7,10-tris(carboxymethyl)-1,4,7,10-tetraazacyclododecan-1-yl)-3,9,15,17-tetraazaicosane-14,18,20-tricarboxylic acid]
Ki (PSMA; Table 6, given as range): 0.2 to 0.33 nM
Specific Cell Surface Binding (PSMA(+) PC3 PIP cells): 29.23 ± 0.80 % IA/10^6 cells
specific internalization (PSMA(+) PC3 PIP cells): 24.96 ± 0.90 % IA/10^6 cells

O=C(O)CC[C@H](NC(=O)N[C@@H](CCCCN(Cc1ccc(Br)cc1)C(=O)CCCCCNC(=O)c1ccc(CNC(=O)CN2CCN(CC(=O)O)CCN(CC(=O)O)CCN(CC(=O)O)CC2)cc1)C(=O)O)C(=O)O [Ligand L3, (14S,18S)-9-(4-Bromobenzyl)-1,8,16-trioxo-1-(4-((2-(4,7,10-tris(carboxymethyl)-1,4,7,10-tetraazacyclododecan-1-yl)acetamido)methyl)phenyl)-2,9,15,17-tetraazaicosane-14,18,20-tricarboxylic acid]
Ki (PSMA; Table 6, given as range): 0.09 to 34 nM
Specific Cell Surface Binding (PSMA(+) PC3 PIP cells): 36.65 ± 0.50 % IA/10^6 cells
specific internalization (PSMA(+) PC3 PIP cells): 22.03 ± 0.60 % IA/10^6 cells

O=C(O)CC[C@H](NC(=O)N[C@@H](CCCCN(Cc1ccc(Br)cc1)C(=O)CCCCCCC(=O)NCCCCNC(=O)c1ccc(CNC(=O)CN2CCN(CC(=O)O)CCN(CC(=O)O)CCN(CC(=O)O)CC2)cc1)C(=O)O)C(=O)O [Ligand L5, (21S,25S)-16-(4-Bromobenzyl)-1,8,15,23-tetraoxo-1-(4-((2-(4,7,10-tris(carboxymethyl)-1,4,7,10-tetraazacyclododecan-1-yl)acetamido)methyl)phenyl)-2,7,16,22,24-pentaazaheptacosane-21,25,27-tricarboxylic acid]
Ki (PSMA; Table 6, given as range): 0.46 to 0.63 nM
Specific Cell Surface Binding (PSMA(+) PC3 PIP cells): 36.65 ± 0.50 % IA/10^6 cells
specific internalization (PSMA(+) PC3 PIP cells): 22.03 ± 0.60 % IA/10^6 cells

O=C(O)CC[C@H](NC(=O)N[C@@H](CCCCN(Cc1ccc(I)cc1)C(=O)CCCCCCC(=O)NCCCCNC(=O)c1ccc(CNC(=O)CN2CCN(CC(=O)O)CCN(CC(=O)O)CCN(CC(=O)O)CC2)cc1)C(=O)O)C(=O)O [Ligand L6, (21S,25S)-16-(4-Iodobenzyl)-1,8,15,23-tetraoxo-1-(4-((2-(4,7,10-tris(carboxymethyl)-1,4,7,10-tetraazacyclododecan-1-yl)acetamido)methyl)phenyl)-2,7,16,22,24-pentaazaheptacosane-21,25,27-tricarboxylic acid]
Ki (PSMA; Table 6, given as range): 0.35 to 0.93 nM

O=C(O)CC[C@H](NC(=O)N[C@@H](CCCCNC(=O)CCCCNC(=S)Nc1ccc(CC2CN(CC(=O)O)CCN(CC(=O)O)CCN(CC(=O)O)CCN2CC(=O)O)cc1)C(=O)O)C(=O)O (stereo partly drawn) [Ligand L7, (13S,17S)-7,15-dioxo-1-((4-((1,4,7,10-tetrakis(carboxymethyl)-1,4,7,10-tetraazacyclododecan-2-yl)methyl)phenyl)amino)-1-thioxo-2,8,14,16-tetraazanonadecane-13,17,19-tricarboxylic acid]
Ki (PSMA; Table 6, given as range): 0.29 to 0.81 nM

O=C(O)CC[C@H](NC(=O)N[C@@H](CCCCN(Cc1ccc(Br)cc1)C(=O)CCCCNC(=S)Nc1ccc(CC2CN(CC(=O)O)CCN(CC(=O)O)CCN(CC(=O)O)CCN2CC(=O)O)cc1)C(=O)O)C(=O)O (stereo partly drawn) [Ligand L8, (13S,17S)-8-(4-bromobenzyl)-7,15-dioxo-1-((4-((1,4,7,10-tetrakis(carboxymethyl)-1,4,7,10-tetraazacyclododecan-2-yl)methyl)phenyl)amino)-1-thioxo-2,8,14,16-tetraazanonadecane-13,17,19-tricarboxylic acid]
Ki (PSMA; Table 6, given as range): 0.08 to 0.16 nM
specific internalization (PSMA(+) PC3 PIP cells): 20.06 % IA/10^6 cells

O=C(O)CC[C@H](NC(=O)N[C@@H](CCCCN(Cc1ccc(Br)cc1)C(=O)CCCCNC(=O)CCC(C(=O)O)N1CCN(CC(=O)O)CCN(CC(=O)O)CCN(CC(=O)O)CC1)C(=O)O)C(=O)O (stereo partly drawn) [Ligand L9, (3S,7S)-12-(4-Bromobenzyl)-5,13,19-trioxo-22-(4,7,10-tris(carboxymethyl)-1,4,7,10-tetraazacyclododecan-1-yl)-4,6,12,18-tetraazadocosane-1,3,7,22-tetracarboxylic acid]
Ki (PSMA; Table 6, given as range): 0.02 to 0.05 nM
specific internalization (PSMA(+) PC3 PIP cells): 7.80 % IA/10^6 cells

O=C(O)CC[C@H](NC(=O)N[C@@H](CCCCN(Cc1ccc(Br)cc1)C(=O)c1ccc(CNC(=O)CN2CCN(CC(=O)O)CCN(CC(=O)O)CCN(CC(=O)O)CC2)cc1)C(=O)O)C(=O)O [Ligand L12, (((S)-5-(N-(4-Bromobenzyl)-4-((2-(4,7,10-tris(carboxymethyl)-1,4,7,10-tetraazacyclododecan-1-yl)acetamido)methyl)benzamido)-1-carboxypentyl)carbamoyl)-L-glutamic acid]
Ki (PSMA; Table 6, given as range): 0.22 to 4.03 nM

O=C(O)CC[C@H](NC(=O)N[C@@H](CCCCN(Cc1ccc(Br)nc1)C(=O)CCCCNC(=O)CN1CCN(CC(=O)O)CCN(CC(=O)O)CCN(CC(=O)O)CC1)C(=O)O)C(=O)O [Ligand L13, (14S,18S)-9-((6-Bromopyridin-3-yl)methyl)-2,8,16-trioxo-1-(4,7,10-tris(carboxymethyl)-1,4,7,10-tetraazacyclododecan-1-yl)-3,9,15,17-tetraazaicosane-14,18,20-tricarboxylic acid]
Ki (PSMA; Table 6, given as range): 0.23 to 8.1 nM

O=C([O-])CN1CCN(CC(=O)[O-])CCN(CC(=O)NCCCCC(=O)N(CCCC[C@H](NC(=O)N[C@@H](CCC(=O)O)C(=O)O)C(=O)O)Cc2ccc(Br)cc2)CCN(CC(=O)[O-])CC1.[Lu+3] [Lu-L1]
fold improvement in binding affinity over L1 (PSMA): 3 fold

O=C([O-])CN1CCN(CC(=O)[O-])CCN(CC(=O)O)C(Cc2ccc(NC(=S)NCCCCC(=O)N(CCCC[C@H](NC(=O)N[C@@H](CCC(=O)O)C(=O)O)C(=O)O)Cc3ccc(Br)cc3)cc2)CN(CC(=O)[O-])CC1.[177Lu+3] (some centres unmarked) [^177Lu-L8]
fold higher internalization compared to 177Lu-7 (PSMA(+) PC3 PIP cells; all time-points up to 24 h): > 1.5 fold
D0 (37% survival) (PSMA+ PC3 PIP cells; 48 h incubation): 0.3-0.6 μCi/mL
Cell surviving fraction (PSMA+ PC3 PIP cells; incubated for 2 h and 24 h): > 0.8
mice with tumor growth with relative volume>5 after 8 weeks (PSMA+ PC3 PIP tumors): only two mice
tumor-free survival of remaining treated mice (PSMA+ PC3 PIP tumors): 10 months
unexpected death of mice (used for SPECT/CT imaging) (PSMA+ PC3 PIP tumors): three mice
PSMA(+) PC3 PIP tumor uptake ([2]; 2 h): 55.4±7.2 % ID/g
PSMA(+) PC3 PIP tumor uptake ([2]; 24 h post-injection): 40.6±7.0 % ID/g
PSMA(+) PC3 PIP tumor uptake ([2]; 48 h): 27.0±7.0 % ID/g
PSMA(+) PC3 PIP tumor uptake ([2]; fourth time point, time not given): 24.9±2.3 % ID/g
